Data taken from US20200354426A1 (MEDIMMUNE LIMITED, priority 2016, published 2020).
Where “and” joins values, the source holds several entries; their conditions need not be identical. Equal entries are not always repeated. Where two headings read alike, the source gives them in different places. Numbered stars: 1 amine (or outer) side, 2 acyl side, 3 side chain; on linkers, the order of the positions; unused ones are H or OH. Side chains are listed from the residue outwards. Peptide text beside a SMILES is read from it. * marks the point of attachment. γGlu = O=C(O)[C@H](CCC(=O)[*:2])N[*:1]; Palmitoyl = CCCCCCCCCCCCCCCC(=O)*

What was measured:
Test in all cases: cAMP activity assay in assay medium (assay 1)
Type in all cases: cell-based
Conditions in all cases: assay medium
Human GLP1R = Human GLP1R (Homo sapiens, UniProt P43220); set-up: expressed in transfected cells
Source text: (§1) Biological Activity of Peptides in Cell-Based cAMP Activity Assay (Assay 1):
(§2) All sample dilutions were made in duplicate.

Human GIPr = molecular target: T1, Human GIPr (Homo sapiens, UniProt P48546)
T1 construct: expressed in transfected cells
T1 sequence (P48546 22-466): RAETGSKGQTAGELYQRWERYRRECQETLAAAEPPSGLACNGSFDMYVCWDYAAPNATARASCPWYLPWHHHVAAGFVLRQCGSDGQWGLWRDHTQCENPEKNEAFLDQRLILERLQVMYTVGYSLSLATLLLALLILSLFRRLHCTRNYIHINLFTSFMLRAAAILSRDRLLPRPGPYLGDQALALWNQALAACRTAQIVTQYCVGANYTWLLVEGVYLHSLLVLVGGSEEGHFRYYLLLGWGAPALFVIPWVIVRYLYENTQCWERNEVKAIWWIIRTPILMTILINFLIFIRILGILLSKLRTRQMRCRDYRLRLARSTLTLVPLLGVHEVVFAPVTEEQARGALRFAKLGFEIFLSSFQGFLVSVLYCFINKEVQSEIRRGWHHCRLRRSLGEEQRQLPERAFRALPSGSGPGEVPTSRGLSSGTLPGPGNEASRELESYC
Source text: as §1, §2

Human GlucR = molecular target: T2, Human GlucR (Homo sapiens, UniProt P47871)
T2 construct: expressed in transfected cells
Source text: as §1, §2

[1] = Table 3, C-terminal acid peptides, read-out: Human GLP1R EC50
[2] = Table 3, C-terminal acid peptides, read-out: Human GIPr EC50
[3] = Table 3, C-terminal acid peptides, read-out: Human GlucR EC50

T2 sequence (P47871 26-477): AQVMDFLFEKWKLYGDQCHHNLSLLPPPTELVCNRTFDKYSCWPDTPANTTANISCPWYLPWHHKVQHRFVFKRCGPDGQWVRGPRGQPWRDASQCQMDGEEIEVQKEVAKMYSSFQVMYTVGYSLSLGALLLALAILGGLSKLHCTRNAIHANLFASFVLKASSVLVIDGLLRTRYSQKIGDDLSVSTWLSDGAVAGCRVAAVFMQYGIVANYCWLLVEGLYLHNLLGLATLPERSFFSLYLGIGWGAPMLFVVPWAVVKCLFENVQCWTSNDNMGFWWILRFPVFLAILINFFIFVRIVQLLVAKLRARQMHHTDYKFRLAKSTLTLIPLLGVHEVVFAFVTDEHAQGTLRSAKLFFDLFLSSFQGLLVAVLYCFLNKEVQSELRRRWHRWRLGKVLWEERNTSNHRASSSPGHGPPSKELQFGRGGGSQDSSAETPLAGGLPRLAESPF
Human GLP1R, sequence (P43220 24-463): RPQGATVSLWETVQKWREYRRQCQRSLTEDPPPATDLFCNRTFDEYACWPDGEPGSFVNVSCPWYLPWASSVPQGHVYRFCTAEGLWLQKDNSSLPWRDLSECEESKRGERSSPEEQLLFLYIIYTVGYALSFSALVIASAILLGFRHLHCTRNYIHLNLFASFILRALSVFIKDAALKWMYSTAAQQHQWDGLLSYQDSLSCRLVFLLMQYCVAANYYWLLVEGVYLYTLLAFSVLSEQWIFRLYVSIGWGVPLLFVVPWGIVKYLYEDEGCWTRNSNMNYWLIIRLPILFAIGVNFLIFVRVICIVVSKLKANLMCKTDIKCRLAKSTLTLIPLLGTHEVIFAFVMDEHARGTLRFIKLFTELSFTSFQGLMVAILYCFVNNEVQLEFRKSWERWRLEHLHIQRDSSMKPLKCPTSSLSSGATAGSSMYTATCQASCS

Row | EC50 (Human GLP1R; [1]) [nM] | EC50 (Human GIPr; [2]) [nM] | EC50 (Human GlucR; [3]) [nM] | EC50 (Human GLP1R; Table 4, read-out: hGLP1R EC50) [nM] | EC50 (Human GIPr; Table 4, read-out: hGIPR EC50) | EC50 (Human GlucR; Table 4, read-out: hGlucR EC50) | SMILES
1 |  |  |  | 0.012 | 64 nM |  | CCCCCCCCCCCCCCCC(=O)N[C@@H](CCC(=O)NCCCC[C@H](NC(=O)[C@H](Cc1ccc(O)cc1)NC(=O)[C@H](CCCCN)NC(=O)[C@H](CO)NC(=O)[C@H](Cc1ccc(O)cc1)NC(=O)[C@H](CC(=O)O)NC(=O)[C@H](CO)NC(=O)[C@@H](NC(=O)[C@H](Cc1ccccc1)NC(=O)[C@@H](NC(=O)CNC(=O)[C@H](CCC(N)=O)NC(=O)[C@H](CO)NC(=O)[C@@H](N)Cc1c[nH]cn1)[C@@H](C)O)[C@@H](C)O)C(=O)N[C@@H](CC(=O)O)C(=O)N[C@@H](CO)C(=O)N[C@@H](CCCNC(=N)N)C(=O)N[C@@H](CCCNC(=N)N)C(=O)N[C@@H](C)C(=O)N[C@@H](CCCNC(=N)N)C(=O)N[C@@H](CC(=O)O)C(=O)N[C@@H](Cc1ccccc1)C(=O)N[C@H](C(=O)N[C@@H](C)C(=O)N[C@@H](Cc1c[nH]c2ccccc12)C(=O)N[C@@H](CC(C)C)C(=O)N[C@@H](CCC(=O)O)C(=O)N[C@@H](C)C(=O)NCC(=O)NCC(N)=O)C(C)C)C(=O)O [g780] (H-HSQGTFTSDYSKYK([γGlu-Palmitoyl])DSRRARDFVAWLEAGG-NH2; N-terminus assumed)
2 |  |  |  | 0.00907 | 1.51 nM |  | CCCCCCCCCCCCCCCC(=O)N[C@@H](CCC(=O)NCCCC[C@H](NC(=O)[C@H](CC(=O)O)NC(=O)[C@H](CO)NC(=O)[C@@H](NC(=O)[C@H](Cc1ccccc1)NC(=O)[C@@H](NC(=O)CNC(=O)[C@H](CCC(N)=O)NC(=O)[C@H](CO)NC(=O)[C@@H](N)Cc1c[nH]cn1)[C@@H](C)O)[C@@H](C)O)C(=O)N[C@@H](CO)C(=O)N[C@@H](CCCCN)C(=O)N[C@@H](Cc1ccc(O)cc1)C(=O)N[C@@H](CC(C)C)C(=O)N[C@@H](CC(=O)O)C(=O)N[C@@H](CO)C(=O)N[C@@H](CCC(=O)O)C(=O)N[C@@H](CCCNC(=N)N)C(=O)N[C@@H](C)C(=O)N[C@@H](CCCNC(=N)N)C(=O)N[C@@H](CC(=O)O)C(=O)N[C@@H](Cc1ccccc1)C(=O)N[C@H](C(=O)N[C@@H](C)C(=O)N[C@@H](Cc1c[nH]c2ccccc12)C(=O)N[C@@H](CC(C)C)C(=O)N[C@@H](CCC(=O)O)C(=O)N[C@@H](C)C(=O)NCC(=O)NCC(N)=O)C(C)C)C(=O)O [g798] (H-HSQGTFTSDK([γGlu-Palmitoyl])SKYLDSERARDFVAWLEAGG-NH2; N-terminus assumed)
3 |  |  |  | 0.00942 | 2.77 nM |  | CCCCCCCCCCCCCCCC(=O)N[C@@H](CCC(=O)NCCCC[C@H](NC(=O)[C@H](CC(=O)O)NC(=O)[C@H](CO)NC(=O)[C@@H](NC(=O)[C@H](Cc1ccccc1)NC(=O)[C@@H](NC(=O)CNC(=O)[C@H](CCC(N)=O)NC(=O)[C@H](CO)NC(=O)[C@@H](N)Cc1c[nH]cn1)[C@@H](C)O)[C@@H](C)O)C(=O)N[C@@H](CO)C(=O)N[C@@H](CCCNC(=N)N)C(=O)N[C@@H](Cc1ccc(O)cc1)C(=O)N[C@@H](CC(C)C)C(=O)N[C@@H](CC(=O)O)C(=O)N[C@@H](CO)C(=O)N[C@@H](CCC(=O)O)C(=O)N[C@@H](CCCNC(=N)N)C(=O)N[C@@H](C)C(=O)N[C@@H](CCCNC(=N)N)C(=O)N[C@@H](CC(=O)O)C(=O)N[C@@H](Cc1ccccc1)C(=O)N[C@H](C(=O)N[C@@H](C)C(=O)N[C@@H](Cc1c[nH]c2ccccc12)C(=O)N[C@@H](CC(C)C)C(=O)N[C@@H](CCC(=O)O)C(=O)N[C@@H](C)C(=O)NCC(=O)NCC(N)=O)C(C)C)C(=O)O [g848] (H-HSQGTFTSDK([γGlu-Palmitoyl])SRYLDSERARDFVAWLEAGG-NH2; N-terminus assumed)

Further lines, the compound ahead of its results:

Row | SMILES | EC50 (Human GLP1R; [1]) [nM] | EC50 (Human GIPr; [2]) [nM] | EC50 (Human GlucR; [3]) [nM] | EC50 (Human GLP1R; Table 4, read-out: hGLP1R EC50) [nM] | EC50 (Human GIPr; Table 4, read-out: hGIPR EC50) | EC50 (Human GlucR; Table 4, read-out: hGlucR EC50)
4 | CCCCCCCCCCCCCCCC(=O)N[C@@H](CCC(=O)NCCCC[C@H](NC(=O)[C@H](CC(=O)O)NC(=O)[C@H](CO)NC(=O)[C@@H](NC(=O)[C@H](Cc1ccccc1)NC(=O)[C@@H](NC(=O)CNC(=O)[C@H](CCC(N)=O)NC(=O)[C@H](CO)NC(=O)[C@@H](N)Cc1c[nH]cn1)[C@@H](C)O)[C@@H](C)O)C(=O)N[C@@H](CO)C(=O)N[C@@H](CCCCN)C(=O)N[C@@H](Cc1ccc(O)cc1)C(=O)N[C@@H](CC(C)C)C(=O)N[C@@H](CCC(=O)O)C(=O)NCC(=O)N[C@@H](CCC(N)=O)C(=O)N[C@@H](C)C(=O)N[C@@H](C)C(=O)N[C@@H](CCCCN)C(=O)N[C@@H](CCC(=O)O)C(=O)N[C@@H](Cc1ccccc1)C(=O)N[C@H](C(=O)N[C@@H](C)C(=O)N[C@@H](Cc1c[nH]c2ccccc12)C(=O)N[C@@H](CC(C)C)C(=O)N[C@@H](CCC(=O)O)C(=O)N[C@@H](CCCCN)C(=O)NCC(=O)N[C@@H](CCCNC(=N)N)C(=O)O)[C@@H](C)CC)C(=O)O [Peptide G934] | 0.018 | 3.6 | 0.0063 |  |  | 
5 | CCCCCCCCCCCCCCCC(=O)N[C@@H](CCC(=O)NCCCC[C@H](NC(=O)[C@H](CC(=O)O)NC(=O)[C@H](CO)NC(=O)[C@@H](NC(=O)[C@H](Cc1ccccc1)NC(=O)[C@@H](NC(=O)CNC(=O)[C@H](CCC(N)=O)NC(=O)[C@H](CO)NC(=O)[C@@H](N)Cc1c[nH]cn1)[C@@H](C)O)[C@@H](C)O)C(=O)N[C@@H](CO)C(=O)N[C@@H](CO)C(=O)N[C@@H](Cc1ccc(O)cc1)C(=O)N[C@@H](CC(C)C)C(=O)N[C@@H](CC(=O)O)C(=O)N[C@@H](CO)C(=O)N[C@@H](CCCNC(=N)N)C(=O)N[C@@H](CO)C(=O)N[C@@H](C)C(=O)N[C@@H](CCCNC(=N)N)C(=O)N[C@@H](CC(=O)O)C(=O)N[C@@H](Cc1ccccc1)C(=O)N[C@H](C(=O)N[C@@H](C)C(=O)N[C@@H](Cc1c[nH]c2ccccc12)C(=O)N[C@@H](CC(C)C)C(=O)N[C@@H](CCC(=O)O)C(=O)N[C@@H](C)C(=O)NCC(=O)NCC(=O)O)C(C)C)C(=O)O [Peptide G973] | 0.012 | 47 | 0.0089 |  |  | 
6 | CC(C)C[C@H](NC(=O)[C@H](Cc1ccc(O)cc1)NC(=O)[C@H](CCCCN)NC(=O)[C@H](CO)NC(=O)[C@H](Cc1ccc(O)cc1)NC(=O)[C@H](CC(=O)O)NC(=O)[C@H](CO)NC(=O)[C@@H](NC(=O)[C@H](Cc1ccccc1)NC(=O)[C@@H](NC(=O)CNC(=O)[C@H](CCC(N)=O)NC(=O)[C@H](CO)NC(=O)[C@@H](N)Cc1c[nH]cn1)[C@@H](C)O)[C@@H](C)O)C(=O)N[C@@H](CC(=O)O)C(=O)N[C@@H](CO)C(=O)N[C@@H](CCCNC(=N)N)C(=O)N[C@@H](CCCNC(=N)N)C(=O)N[C@@H](C)C(=O)N[C@@H](CCC(N)=O)C(=O)N[C@@H](CC(=O)O)C(=O)N[C@@H](Cc1ccccc1)C(=O)N[C@H](C(=O)N[C@@H](CCC(N)=O)C(=O)N[C@@H](Cc1c[nH]c2ccccc12)C(=O)N[C@@H](CC(C)C)C(=O)N[C@H](C(=O)N[C@@H](CCCNC(=N)N)C(=O)NCC(=O)NCC(=O)NCC(=O)NCC(=O)NCC(=O)NCC(N)=O)C(C)C)C(C)C [g315] |  |  |  | 0.0273 | 19.7 nM | 0.00504 nM
7 | CCCCCCCCCCCCCCCC(=O)N[C@@H](CCC(=O)NCCCC[C@H](NC(=O)[C@H](CO)NC(=O)[C@H](CC(=O)O)NC(=O)[C@H](CC(C)C)NC(=O)[C@H](Cc1ccc(O)cc1)NC(=O)[C@H](CCCCN)NC(=O)[C@H](CO)NC(=O)[C@H](Cc1ccc(O)cc1)NC(=O)[C@H](CC(=O)O)NC(=O)[C@H](CO)NC(=O)[C@@H](NC(=O)[C@H](Cc1ccccc1)NC(=O)[C@@H](NC(=O)CNC(=O)[C@H](CCC(N)=O)NC(=O)[C@H](CO)NC(=O)[C@@H](N)Cc1c[nH]cn1)[C@@H](C)O)[C@@H](C)O)C(=O)N[C@@H](CCCNC(=N)N)C(=O)N[C@@H](C)C(=O)N[C@@H](CCC(=O)O)C(=O)N[C@@H](CC(=O)O)C(=O)N[C@@H](Cc1ccccc1)C(=O)N[C@H](C(=O)N[C@@H](CCC(N)=O)C(=O)N[C@@H](Cc1c[nH]c2ccccc12)C(=O)N[C@@H](CC(C)C)C(=O)N[C@H](C(=O)N[C@@H](C)C(=O)NCC(=O)NCC(N)=O)C(C)C)C(C)C)C(=O)O [g599] |  |  |  |  | 113 nM and 112 nM | 0.0962 nM and 0.0698 nM
8 | CCCCCCCCCCCCCCCC(=O)N[C@@H](CCC(=O)NCCCC[C@H](NC(=O)[C@H](CC(=O)O)NC(=O)[C@H](CO)NC(=O)[C@@H](NC(=O)[C@H](Cc1ccccc1)NC(=O)[C@@H](NC(=O)CNC(=O)[C@H](CCC(N)=O)NC(=O)[C@H](CO)NC(=O)[C@@H](N)Cc1c[nH]cn1)[C@@H](C)O)[C@@H](C)O)C(=O)N[C@@H](CO)C(=O)N[C@@H](CCCCN)C(=O)N[C@@H](Cc1ccc(O)cc1)C(=O)N[C@@H](CC(C)C)C(=O)N[C@@H](CC(=O)O)C(=O)N[C@@H](CO)C(=O)N[C@@H](CCCNC(=N)N)C(=O)N[C@@H](CCCNC(=N)N)C(=O)N[C@@H](C)C(=O)N[C@@H](CCC(N)=O)C(=O)N[C@@H](CC(=O)O)C(=O)N[C@@H](Cc1ccccc1)C(=O)N[C@H](C(=O)N[C@@H](CCC(N)=O)C(=O)N[C@@H](Cc1c[nH]c2ccccc12)C(=O)N[C@@H](CC(C)C)C(=O)N[C@@H](CCC(=O)O)C(=O)N[C@@H](C)C(=O)NCC(=O)NCC(N)=O)C(C)C)C(=O)O [g717] (H-HSQGTFTSDK([γGlu-Palmitoyl])SKYLDSRRAQDFVQWLEAGG-NH2; N-terminus assumed) |  |  |  | 0.00577 | 1.48 nM | 
